Data taken from US4160829A, “Antibacterial 1,2,4-oxadiazolylacetamido cephalosporins” (Gist-Brocades N.V., priority 1972, dated 1979).
Values after ≈ are worked out from the molar mass of the structure shown.

Assays:
Bac.Subt.ATCC 6633 = test: agar serial dilution test; assay type: cell-based, Bacillus subtilis; settings: Bacillus subtilis, ATCC6633, 24 h, agar serial dilution, 24 hours, 37° C.; read-out: minimal inhibitory concentration (MIC)
Staph.aureus A 321 = test: agar serial dilution test; assay type: cell-based, Staphylococcus aureus; settings: Staphylococcus aureus, A321, 24 h, agar serial dilution, 24 hours, 37° C.; read-out: minimal inhibitory concentration (MIC)
Staph.aureus A 2000 [1] = test: agar serial dilution test; assay type: cell-based, Staphylococcus aureus; settings: Staphylococcus aureus, A2000, 24 h, agar serial dilution, 24 hours, 37° C.; read-out: minimal inhibitory concentration (MIC)
Staph.aureus A 2001 [2] = test: agar serial dilution test; assay type: cell-based, Staphylococcus aureus; settings: Staphylococcus aureus, A2001, 24 h, agar serial dilution, 24 hours, 37° C.; read-out: minimal inhibitory concentration (MIC)
Strep.haem. A 266 = test: agar serial dilution test; assay type: cell-based, Streptococcus haemolyticus; settings: Streptococcus; agar serial dilution, 24 hours, 37° C.; read-out: minimal inhibitory concentration (MIC)
Strep. faec. L 80 = test: agar serial dilution test; assay type: cell-based, Streptococcus faecalis; settings: Enterococcus faecalis; agar serial dilution, 24 hours, 37° C.; read-out: minimal inhibitory concentration (MIC)
Dipl.pneum. L 54 = test: agar serial dilution test; assay type: cell-based, Diplococcus pneumoniae; settings: Streptococcus pneumoniae; agar serial dilution, 24 hours, 37° C.; read-out: minimal inhibitory concentration (MIC)
Bruc.melit. A 488 = test: microbe, parasite or virus in culture; assay type: cell-based; settings: Brucella melitensis, 24 h, read-out: minimal inhibitory concentration (MIC)
Past.multo. A 723 = test: agar serial dilution test; assay type: cell-based, Pasteurella multocida; settings: Pasteurella multocida; agar serial dilution, 24 hours, 37° C.; read-out: minimal inhibitory concentration (MIC)
Kleb.pneum. A 809 = test: agar serial dilution test; assay type: cell-based, Klebsiella pneumoniae; settings: Klebsiella pneumoniae; agar serial dilution, 24 hours, 37° C.; read-out: minimal inhibitory concentration (MIC)
Salm.dubl. P 43 = test: agar serial dilution test; assay type: cell-based, Salmonella dublin; settings: Salmonella enterica; agar serial dilution, 24 hours, 37° C.; read-out: minimal inhibitory concentration (MIC)
Salm.typh. R 127 = test: agar serial dilution test; assay type: cell-based; settings: 24 h, 37° C., read-out: minimal inhibitory concentration (MIC)
Esch.coli U 20 = test: agar serial dilution test; assay type: cell-based, Escherichia coli; settings: Escherichia coli, U20; agar serial dilution, 24 hours, 37° C.; read-out: minimal inhibitory concentration (MIC)
Shig.equir. T 3 = test: agar serial dilution test; assay type: cell-based; settings: 24 h, 37° C., read-out: minimal inhibitory concentration (MIC)
Pseud.aerug. H 10 = test: agar serial dilution test; assay type: cell-based; settings: agar serial dilution, 24 hours, 37° C.; read-out: minimal inhibitory concentration (MIC)
Pseud.aerug. 2396 = test: agar serial dilution test; assay type: cell-based; settings: agar serial dilution, 24 hours, 37° C.; read-out: minimal inhibitory concentration (MIC)
[3] = test system: Pseud.aerug. Wyeth A 1058; test: agar serial dilution test; assay type: cell-based; settings: agar serial dilution, 24 hours, 37° C.; read-out: minimal inhibitory concentration (MIC)
Prot.rettg. A 821 = test: agar serial dilution test; assay type: cell-based, Proteus rettgeri; settings: Providencia rettgeri, 24 h, agar serial dilution, 24 hours, 37° C.; read-out: minimal inhibitory concentration (MIC)
Prot.mirab. H 3 = test: agar serial dilution test; assay type: cell-based, Proteus mirabilis; settings: Proteus mirabilis; agar serial dilution, 24 hours, 37° C.; read-out: minimal inhibitory concentration (MIC)
Prot.mirab. L 93 = test: agar serial dilution test; assay type: cell-based, Proteus mirabilis; settings: Proteus mirabilis; agar serial dilution, 24 hours, 37° C.; read-out: minimal inhibitory concentration (MIC)
Prot.mirab. A 1200 = test: agar serial dilution test; assay type: cell-based, Proteus mirabilis; settings: Proteus mirabilis, 24 h, agar serial dilution, 24 hours, 37° C.; read-out: minimal inhibitory concentration (MIC)
Prot.morg. 2241 = test: agar serial dilution test; assay type: cell-based; settings: 24 h, agar serial dilution, 24 hours, 37° C.; read-out: minimal inhibitory concentration (MIC)
Staph.aureus A 355 [4] = test: micro serial dilution test; assay type: cell-based, Staphylococcus aureus; settings: Staphylococcus aureus, A355; micro serial dilution (in brackets), about 18 hours, 30° C. or 37° C.; penicillinase-producing strain; read-out: minimal inhibitory concentration (MIC)
Staph.aureus A 2000 [5] = test: micro serial dilution test; assay type: cell-based, Staphylococcus aureus; settings: Staphylococcus aureus, A2000, 18 h, micro serial dilution (in brackets), about 18 hours, 30° C. or 37° C.; read-out: minimal inhibitory concentration (MIC)
Staph.aureus A 2001 [6] = test: micro serial dilution test; assay type: cell-based, Staphylococcus aureus; settings: Staphylococcus aureus, A2001, 18 h, micro serial dilution (in brackets), about 18 hours, 30° C. or 37° C.; read-out: minimal inhibitory concentration (MIC)
Haem.infl. A 1030 = test: micro serial dilution test; assay type: cell-based; settings: 18 h, micro serial dilution (in brackets), about 18 hours, 30° C. or 37° C.; read-out: minimal inhibitory concentration (MIC)
Staph.aureus A 355 [7] = test: agar serial dilution test; settings: Staphylococcus aureus, A355, 24 h, read-out: minimal inhibitory concentration (MIC), agar serial dilution, 24 hours, 37° C.; penicillinase-producing strain

Compound	MIC (Bac.Subt.ATCC 6633)	MIC (Staph.aureus A 321)	MIC (Staph.aureus A 2000 [1])	MIC (Staph.aureus A 2001 [2])	MIC (Strep.haem. A 266)	MIC (Strep. faec. L 80)	MIC (Dipl.pneum. L 54)	MIC (Bruc.melit. A 488)	MIC (Past.multo. A 723)	MIC (Kleb.pneum. A 809)	MIC (Salm.dubl. P 43)	MIC (Salm.typh. R 127)	MIC (Esch.coli U 20)	MIC (Shig.equir. T 3)	MIC (Pseud.aerug. H 10)	MIC (Pseud.aerug. 2396)	MIC [3]	MIC (Prot.rettg. A 821)	MIC (Prot.mirab. H 3)	MIC (Prot.mirab. L 93)	other results
COCc1noc(CC(=O)N[C@@H]2C(=O)N3[C@@H]2SC(C)(C)[C@@H]3C(=O)O)n1 [Compound A, 6-[(3-methoxymethyl-1,2,4-oxadiazol-5-yl)-acetamido]-penicillanic acid]	0.06 µg/mL (≈ 0.162 µM)	0.5 µg/mL (≈ 1.35 µM)	6 µg/mL (≈ 16.2 µM)	1.5 µg/mL (≈ 4.05 µM)	0.03 µg/mL (≈ 0.081 µM)	6 µg/mL (≈ 16.2 µM)	0.25 µg/mL (≈ 0.675 µM)	0.5 µg/mL (≈ 1.35 µM)	1 µg/mL (≈ 2.7 µM)	> 100 µg/mL	12.5 µg/mL (≈ 33.7 µM)	25 µg/mL (≈ 67.5 µM)	50 µg/mL (≈ 135 µM)	1.5 µg/mL (≈ 4.05 µM)	> 100 µg/mL	> 100 µg/mL	> 100 µg/mL	6 µg/mL (≈ 16.2 µM)	> 100 µg/mL	12.5 µg/mL (≈ 33.7 µM)	MIC (Prot.mirab. A 1200): 100 µg/mL (≈ 270 µM); MIC (Prot.morg. 2241): > 100 µg/mL; MIC (Staph.aureus A 355 [4]): 60 µg/mL (≈ 162 µM); MIC (Staph.aureus A 2000 [5]): 90 µg/mL (≈ 243 µM); MIC (Staph.aureus A 2001 [6]): 3.7 µg/mL (≈ 9.99 µM); MIC (Haem.infl. A 1030): 4 µg/mL (≈ 10.8 µM); MIC (Staph.aureus A 355 [7]): 6 µg/mL (≈ 16.2 µM)
CC(=O)OCC1=C(C(=O)O)N2C(=O)[C@@H](NC(=O)C(c3ccccc3)c3nc(C)no3)[C@H]2SC1 (stereo partly drawn) [Compound B, 7-[α-phenyl-(3-methyl-1,2,4-oxadiazol-5-yl)-acetamido]-3-acetoxymethyl-3-cephem-4-carboxylic acid]	0.25 µg/mL (≈ 0.529 µM)	0.5 µg/mL (≈ 1.06 µM)	1.5 µg/mL (≈ 3.17 µM)	1.5 µg/mL (≈ 3.17 µM)	0.5 µg/mL (≈ 1.06 µM)	50 µg/mL (≈ 106 µM)	1 µg/mL (≈ 2.12 µM)	1.5 µg/mL (≈ 3.17 µM)	0.5 µg/mL (≈ 1.06 µM)	6 µg/mL (≈ 12.7 µM)	> 100 µg/mL	> 100 µg/mL	> 100 µg/mL	> 100 µg/mL	> 100 µg/mL	> 100 µg/mL	> 100 µg/mL	3 µg/mL (≈ 6.35 µM)	> 100 µg/mL	25 µg/mL (≈ 52.9 µM)	MIC (Prot.mirab. A 1200): > 100 µg/mL; MIC (Prot.morg. 2241): > 100 µg/mL; MIC (Staph.aureus A 355 [4]): 1.2 µg/mL (≈ 2.54 µM); MIC (Staph.aureus A 2000 [5]): 1.2 µg/mL (≈ 2.54 µM); MIC (Staph.aureus A 2001 [6]): 1.2 µg/mL (≈ 2.54 µM); MIC (Haem.infl. A 1030): 1.2 µg/mL (≈ 2.54 µM); MIC (Staph.aureus A 355 [7]): 1.5 µg/mL (≈ 3.17 µM)
CC1=C(C(=O)O)N2C(=O)[C@@H](NC(=O)Cc3nc(Cc4ccccc4)no3)[C@H]2SC1 [Example 7, 7-[(3-benzyl-1,2,4-oxadiazol-5-yl)-acetamido]-desacetoxycephalosporanic acid]	3 µg/mL (≈ 7.24 µM)	3 µg/mL (≈ 7.24 µM)	25 µg/mL (≈ 60.3 µM)	6 µg/mL (≈ 14.5 µM)	25 µg/mL (≈ 60.3 µM)	100 µg/mL (≈ 241 µM)	4 µg/mL (≈ 9.65 µM)	25 µg/mL (≈ 60.3 µM)	25 µg/mL (≈ 60.3 µM)	100 µg/mL (≈ 241 µM)	100 µg/mL (≈ 241 µM)	> 100 µg/mL	> 100 µg/mL	> 100 µg/mL	> 100 µg/mL	> 100 µg/mL	> 100 µg/mL	> 100 µg/mL	> 100 µg/mL	> 100 µg/mL	MIC (Prot.mirab. A 1200): > 100 µg/mL; MIC (Prot.morg. 2241): > 100 µg/mL; MIC (Staph.aureus A 355 [4]): 8 µg/mL (≈ 19.3 µM); MIC (Staph.aureus A 2000 [5]): 4 µg/mL (≈ 9.65 µM); MIC (Staph.aureus A 2001 [6]): 5 µg/mL (≈ 12.1 µM); MIC (Haem.infl. A 1030): 30 µg/mL (≈ 72.4 µM); MIC (Staph.aureus A 355 [7]): 100 µg/mL (≈ 241 µM)
